In patent publication EP0610519B1, “ANTI-HIV DRUG” (priority 1992, dated 1994):
Where two headings read alike, the source gives them in different places.

Experiments:
HIV (type IIIB) = assay: inhibition of budding of HIV from infected H-9 cells (reverse transcriptase activity per unit culture medium as index); type: cell-based; conditions: H-9 cells infected with HIV (type IIIB), 15 minutes treatment, then 360 minutes culture
Procedure: (§1) Human lymphocyte-derived H-9 cells, infected with HIV (type IIIB), were cultured in an RPMI-1640 medium (product of Biocell Laboratories) containing wortmannin and 10% fetal bovine serum (FBS) at 37°C for 15 minutes in a CO2 incubator. The H-9 cells thus obtained were washed with an RPMI-1640 medium, and then cultured in another RPMI-1640 medium containing 10% FBS at 37°C for 360 minutes in a CO2 incubator. The reverse transcriptase activity per unit culture medium was used as an index to determine the inhibitory effect of wortmannin on the budding of HIV.
(§2) The same test as mentioned above was repeated using MS-444 instead of wortmannin.

[1] = rat, in vivo
[2] = test system: Human lymphocyte-derived H-9 cells; assay: host cell growth in the HIV budding test; conditions: concentration of 100 µM
Procedure: as §1, §2

SMILES	Budding of HIV (%) (HIV (type IIIB); 10 µM test compound)	Budding of HIV (%) (HIV (type IIIB); 100 µM test compound)	Budding of HIV (%) (HIV (type IIIB); 1000 µM test compound)	acute toxicity, mortality ([1]; ip, 100 mg/kg)	acute toxicity, mortality ([1]; po, 300 mg/kg)	Host cell growth [2]	Budding of HIV (%) (HIV (type IIIB); 0.1 µM test compound)	Budding of HIV (%) (HIV (type IIIB); 1.0 µM test compound)
Cc1occ2c1C(=O)c1c(O)ccc(O)c1C2 [MS-444]	95	82	20	no rats died	no rats died	–	–	–
COC[C@H]1OC(=O)c2coc3c2[C@@]1(C)C1=C(C3=O)[C@@H]2CCC(=O)[C@@]2(C)C[C@H]1OC(C)=O [Wortmannin]	39	–	–	–	–	not influenced	67	49
